Results from patent US7678808B2, “5 HT receptor mediated neurogenesis” (BrainCells, Inc., priority 2006, dated 2010).
“Also recorded” adds a separate entry of the source. Structures can show the parent of a compound that is named as a salt.

Assays:
[1] = system: Group I or Group III receptors; conditions: sub-mM concentrations; cited from earlier work
mGluR2 = mGluR2 (Homo sapiens, UniProt Q14416); conditions: read-out: IC50 against mGluR2; cited from earlier work
mGluR3 = mGluR3 (Homo sapiens, UniProt Q14832); conditions: read-out: IC50 against mGluR3; cited from earlier work
[2] = system: human neural stem cells (hNSCs); test: Neuronal differentiation of human neural stem cells (TUJ-1 staining); assay type: cell-based; conditions: for EC50: agent alone, data as % of neuronal positive control, basal media subtracted; for EC50 / effect on neuronal differentiation (in words): hNSC; for effect on neuronal differentiation (in words): TUJ-1
Excerpt: Mitogen-free test media with a positive control was used for neuronal differentiation, and basal media without growth factors served as a negative control.
Mitogen-free test media with a positive control for neuronal differentiation was used, and basal media without growth factors served as a negative control.
(§1) Human neural stem cells (hNSCs) were isolated and grown in monolayer culture, plated, treated with varying concentrations of buspirone in the presence or absence of the melatonin agonist melatonin, and stained with TUJ-1 antibody for the detection of neuronal differentiation or GFAP antibody for the detection of astrocyte differentiation, as described above. Mitogen-free test media with a positive control for neuronal differentiation was used along with basal media without growth factors as a negative control.
(§2) Human neural stem cells (hNSCs) were isolated and grown in monolayer culture, plated, treated with varying concentrations of a 5-HT3 antagonist and stained with TUJ-1 antibody, as described above. Mitogen-free test media with a positive control for neuronal differentiation was used along with basal media without growth factors as a negative control.
as §2, with “5-HT4 agonist” for “5-HT3 antagonist”
The presence of synergy was determined by use of a combination index (CI). […] The CI is a quantitative measure of the nature of drug interactions, comparing the EC50's of two compounds, when each is assayed alone, to the EC50 of each compound when assayed in combination. The combination index (CI) is equal to the following formula: […]
where C1 and C2 are the concentrations of a first and a second compound, respectively, resulting in 50% activity in neuronal differentiation when assayed in combination; and IC1 and IC2 are the concentrations of each compound resulting in 50% activity when assayed independently.

[3] = system: human neural stem cells (hNSCs); test: Astrocyte differentiation of hNSCs (GFAP staining); assay type: cell-based; conditions: for effect on astrocyte differentiation (in words): GFAP; for EC50: Homo sapiens, Neural stem cell
Description: Experiments were carried out as described in Example 1, except the positive control for astrocyte differentiation contained mitogen-free test media with a positive control, and cells were stained with GFAP antibody.
Experiments were carried out as described in Example 2, except the positive control for astrocyte differentiation contained mitogen-free test media with a different positive control.
as §1

[4] = system: KA, AMPA, and NMDA iGlu receptors; conditions: cited from earlier work
human mGlu2 = human mGlu2 (Homo sapiens, UniProt Q14416); conditions: in vitro; low nanomolar range; read-out: EC50 against human mGlu2 receptors; cited from earlier work
human mGlu3 = human mGlu3 (Homo sapiens, UniProt Q14832); conditions: in vitro; low nanomolar range; read-out: EC50 against human mGlu3 receptors; cited from earlier work
[5] = system: human neural stem cells (hNSC); test: Immunohistochemistry with neuronal and astrocyte markers (TUJ-1, GFAP, Hoechst 33342); assay type: cell-based; conditions: incubated with 30 μM
Description: Immunohistochemistry was carried out as described above using TUJ-1 as a neuronal cell marker and GFAP as an astrocyte marker. The results are shown in FIG. […] Immunohistochemistry was carried out as described in Example 3.

Male F344 rats [6] = test: Novel Object Recognition (NOR) cognition assay; assay type: in vivo, rat; conditions: fluoxetine 5 and 10 mg/kg p.o., 1x per day for 28 days
Excerpt: The apparatus consisted of an open field (45×45×50 cm high) made of polycarbonate. Triplicate copies were used of the objects to be discriminated. Care was taken to ensure that the pair of objects tested were made from the same material so that they could not be distinguished readily by olfactory cues although they had very different appearances.
Each test session consisted of two phases. In the initial familiarization phase, two identical objects (A1 and A2) were placed in the far corners of the box arena. A rat was then placed in the middle of the arena and allowed 15 minutes to explore both objects. Exploration of an object was defined as directing the nose to the object at a distance of less than 2 cm and/or touching it with the nose. After a delay of 48-hours the rat was re-introduced to the arena (“test phase”). The box now contained a third identical copy of the familiar object (A3) and a new object (B). These were placed in the same locations as the sample stimuli, whereby the position (left or right) of the novel object in the test phase was balanced between rats. For half the rats, object A was the sample and object B was the novel alternative. The test phase was 15 minutes in duration, with the first 30 seconds of object interaction used to determine preference scores. Any animal with less than 15 seconds of object exploration were excluded from analysis.

Male F344 rats [7] = test: Novelty suppressed feeding (NSF) depression assay; assay type: in vivo, rat; conditions: 1x per day for 21 days
Description: Twenty-four hours prior to behavioral testing, all food is removed from the home cage. At the time of testing a single pellet is placed in the center of a novel arena. Animals are placed in the corner of the arena and latency to eat the pellet is recorded. […] Animals receive compound daily for 21 days and testing is performed on day 21. A decreased latency to eat the food pellet is indicative of both neurogenesis and antidepressant activity.
Twenty-four hours prior to behavioral testing, all food is removed from the home cage. At the time of testing a single pellet is placed in the center of a novel arena. Animals are placed in the corner of the arena and the latency (in time) to eat the pellet is recorded. […] Animals receive compound daily for 21 days and testing is performed on day 21. A decreased latency to eat the food pellet is indicative of both neurogenesis and antidepressant activity.

[8] = system: granule cell layer of the dentate gyrus; test: In vivo neurogenesis (BrdU positive cell counts); parameters: species or system rat; conditions: 0.5 mg/kg buspirone, 3.0 mg/kg melatonin or both, i.p., 1x per day for 28 days
Description: BrdU was administered once daily between days 9 and 14 (100 mg/kg/day, i.p., n=12 per dose group). […] Data are presented as percent change in BrdU positive cells per cubic mm dentate gyrus.

[9] = agent alone, hNSC, % of astrocyte positive control, basal media subtracted

Sequence of mGluR3 (Q14832 23-879): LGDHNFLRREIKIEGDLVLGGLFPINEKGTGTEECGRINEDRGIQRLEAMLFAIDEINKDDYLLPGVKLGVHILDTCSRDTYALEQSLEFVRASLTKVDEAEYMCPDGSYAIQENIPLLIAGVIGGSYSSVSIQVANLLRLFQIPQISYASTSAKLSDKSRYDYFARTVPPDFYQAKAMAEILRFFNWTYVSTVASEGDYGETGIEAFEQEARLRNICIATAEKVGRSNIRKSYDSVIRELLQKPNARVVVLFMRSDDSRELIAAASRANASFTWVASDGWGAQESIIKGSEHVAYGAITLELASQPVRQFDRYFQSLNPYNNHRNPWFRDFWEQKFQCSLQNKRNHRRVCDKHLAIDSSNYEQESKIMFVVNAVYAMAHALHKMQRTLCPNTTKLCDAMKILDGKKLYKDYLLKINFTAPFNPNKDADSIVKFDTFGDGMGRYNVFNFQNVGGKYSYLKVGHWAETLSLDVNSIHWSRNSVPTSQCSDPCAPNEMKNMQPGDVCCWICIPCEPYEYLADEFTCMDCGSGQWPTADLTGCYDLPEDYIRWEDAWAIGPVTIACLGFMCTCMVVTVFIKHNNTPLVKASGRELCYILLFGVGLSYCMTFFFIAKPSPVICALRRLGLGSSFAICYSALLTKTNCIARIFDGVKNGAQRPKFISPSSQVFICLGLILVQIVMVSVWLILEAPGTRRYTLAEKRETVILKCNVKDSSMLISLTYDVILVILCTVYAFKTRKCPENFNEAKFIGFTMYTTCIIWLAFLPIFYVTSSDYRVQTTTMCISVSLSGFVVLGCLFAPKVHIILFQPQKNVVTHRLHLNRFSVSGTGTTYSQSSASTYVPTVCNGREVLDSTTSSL
Sequence of human mGlu3 (Q14832 23-879): as above
Sequence of mGluR2 (Q14416 19-872): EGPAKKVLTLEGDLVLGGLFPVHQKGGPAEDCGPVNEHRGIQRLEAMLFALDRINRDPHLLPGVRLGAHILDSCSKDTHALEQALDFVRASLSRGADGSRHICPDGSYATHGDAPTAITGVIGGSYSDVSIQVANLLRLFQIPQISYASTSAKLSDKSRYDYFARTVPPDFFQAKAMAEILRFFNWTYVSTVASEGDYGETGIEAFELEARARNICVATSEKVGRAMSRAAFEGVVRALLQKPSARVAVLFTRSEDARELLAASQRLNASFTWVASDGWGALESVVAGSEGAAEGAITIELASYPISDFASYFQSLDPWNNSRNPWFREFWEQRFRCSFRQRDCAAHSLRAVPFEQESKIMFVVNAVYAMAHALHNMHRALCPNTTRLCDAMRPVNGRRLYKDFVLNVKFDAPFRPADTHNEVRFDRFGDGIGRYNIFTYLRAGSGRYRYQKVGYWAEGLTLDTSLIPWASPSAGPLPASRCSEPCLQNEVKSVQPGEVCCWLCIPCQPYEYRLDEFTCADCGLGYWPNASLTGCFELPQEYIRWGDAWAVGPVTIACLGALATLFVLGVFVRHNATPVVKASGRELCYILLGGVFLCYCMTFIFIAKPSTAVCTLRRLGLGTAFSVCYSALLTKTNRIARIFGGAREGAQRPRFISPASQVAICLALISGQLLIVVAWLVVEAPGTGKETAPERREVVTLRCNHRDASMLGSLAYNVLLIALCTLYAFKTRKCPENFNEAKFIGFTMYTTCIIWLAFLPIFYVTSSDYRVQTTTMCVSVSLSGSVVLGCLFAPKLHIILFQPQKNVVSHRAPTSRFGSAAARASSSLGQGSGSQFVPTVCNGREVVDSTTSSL
Sequence of human mGlu2 (Q14416 19-872): as above

NC1(C(=O)O)CCc2cc(P(=O)(O)O)ccc21 (racemic) [APICA, (RS)-1-amino-5-phosphonoindan-1-carboxylic acid]
activity against Group I or Group III receptors [1]: no appreciable activity | IC50 (mGluR2): ~30 µM | IC50 (mGluR3): ~30 µM

N[C@@H](Cc1c[nH]c2ccc(O)cc12)C(=O)O [5-HTP, 5-hydroxytryptophan]
EC50 ([2]; Homo sapiens, Neural stem cell): 12 µM | effect on neuronal differentiation (in words) [2]: weakly promoted neuronal differentiation | EC50, astrocyte differentiation [3, 9]: undeterminable | effect on astrocyte differentiation (in words) ([3]; hNSC): no significant increase in astrocyte differentiation above basal media values

N[C@](CC1c2ccccc2Oc2ccccc21)(C(=O)O)[C@H]1C[C@@H]1C(=O)O [LY341495, (2S)-2-amino-2-(1S,2S-2-carboxycycloprop-1-yl)-3-(xanth-9-yl) propanoic acid]
activity against KA, AMPA, and NMDA iGlu receptors [4]: substantially inactive

N[C@@]1(C(=O)O)CO[C@H]2[C@H](C(=O)O)[C@H]21 [LY379268, (−)-2-oxa-4-aminobicyclohexane-4,6-dicarboxylic acid]
EC50 (human mGlu2): < 0.01 µM | EC50 (human mGlu3): < 0.01 µM

COc1ccc2cccc(CCNC(C)=O)c2c1 [agomelatine]
EC50 ([2]; Homo sapiens, Neural stem cell): 8.7 µM | effect on neuronal differentiation (in words) [2]: promotes differentiation of neural stem cells into neurons

CN1C(=O)COc2c(C(=O)NC3CN4CCC3CC4)cc(Cl)cc21 (centres unmarked) [azasetron]
EC50 [2]: 5.8 µM | effect on neuronal differentiation (in words) [2]: promote differentiation of neural stem cells into neurons | effect on neuronal differentiation (in words) ([2]; listed as Azasetron): significantly promoted neuronal differentiation | EC50 [3, 9]: > 31.6 µM | effect on astrocyte differentiation (in words) ([3]; hNSC): did not show a significant effect on astrocyte differentiation | maximum astrocyte differentiation ([3]; percent of positive control, agent alone or in combination): 33% | lineage of hNSC monolayer in immunofluorescent image [5]: primarily of a neuronal lineage

NCC(CC(=O)O)c1ccc(Cl)cc1 (centres unmarked) [baclofen]
EC50 ([2]; Homo sapiens, Neural stem cell): 3.9 µM | EC50 [3, 9]: > 31.6 µM

C[C@H](CS)C(=O)N1CCC[C@H]1C(=O)O [captopril]
EC50 ([2]; Homo sapiens, Neural stem cell): 5.4 µM

NC(=O)N1c2ccccc2C=Cc2ccccc21 [carbemazepine]
EC50 ([2]; Homo sapiens, Neural stem cell): 15.7 µM

COc1cc(N)c(Cl)cc1C(=O)NC1CCN(CCCOc2ccc(F)cc2)CC1OC (centres unmarked) [cisapride]
EC50 ([2]; Homo sapiens, Neural stem cell): 7.9 µM | effect on neuronal differentiation (in words) [2]: promote differentiation of neural stem cells into neurons

NCCc1ccc(O)c(O)c1 [dopamine, 4-(2-aminoethyl)benzene-1,2-diol]
neuronal differentiation, dopamine dose response ([2]; dopamine alone or with 10 μM or 30 μM 5-HTP): did not significantly enhance neuronal differentiation

CNCCC(Oc1ccc(C(F)(F)F)cc1)c1ccccc1 (centres unmarked) [fluoxetine]
preference for the novel object (visits, time spent) (Male F344 rats [6]): increased both the number of visits to, and the amount of time spent with, the novel object; also recorded: dose dependent increase in preference for the novel object | latency to eat the food pellet (Male F344 rats [7]; fluoxetine 10.0 mg/kg p.o.): reduced the latency to eat the food pellet

Nc1nc2ncc(CNc3ccc(C(=O)N[C@@H](CCC(=O)O)C(=O)O)cc3)nc2c(=O)[nH]1 [folic acid]
EC50 ([2]; Homo sapiens, Neural stem cell): 4.5 µM

NCC1(CC(=O)O)CCCCC1 [gabapentin]
EC50 ([2]; Homo sapiens, Neural stem cell): 11.5 µM

CN1C2CCCC1CC(NC(=O)c1nn(C)c3ccccc13)C2 (centres unmarked) [granisetron]
effect on neuronal differentiation (in words) [2]: promote differentiation of neural stem cells into neurons

CC(C)C(=O)c1c(C(C)C)nn2ccccc12 [ibudilast]
EC50 ([2]; Homo sapiens, Neural stem cell): 0.72 µM

COc1ccc2[nH]cc(CCNC(C)=O)c2c1 [melatonin]
EC50 ([2]; Homo sapiens, Neural stem cell): > 31.6 µM | EC50 [3, 9]: > 31.6 µM | BrdU positive cells per cubic mm dentate gyrus (percent change) [8]: did not significantly change the number of BrdU positive cells | latency to eat the food pellet (percent baseline) (Male F344 rats [7]; 0.5 mg/kg buspirone, 3.0 mg/kg melatonin or both, i.p.): did not significantly reduce the latency to eat the food pellet

COC(=O)C(c1ccccc1)C1CCCCN1 (centres unmarked) [methylphenidate]
EC50 ([2]; Homo sapiens, Neural stem cell): 2.2 µM

NC(=O)C[S+]([O-])C(c1ccccc1)c1ccccc1 (centres unmarked) [modafinil]
EC50 ([2]; Homo sapiens, Neural stem cell): 12.5 µM | EC50 ([3]; agent alone, hNSC): > 31.6 µM

CCOc1cc(N)c(Cl)cc1C(=O)NCC1CN(Cc2ccc(F)cc2)CCO1 (centres unmarked) [mosapride citrate]
EC50 ([2]; Homo sapiens, Neural stem cell): ~15.8 µM | EC50 [2]: 10.4 µM | effect on neuronal differentiation (in words) ([2]; listed as Mosapride citrate): significantly promoted neuronal differentiation | effect on neuronal differentiation (in words) ([2]; listed as mosapride): promote differentiation of neural stem cells into neurons | EC50 [3, 9]: > 31.6 µM | effect on astrocyte differentiation (in words) ([3]; hNSC): did not show a significant effect on astrocyte differentiation | lineage of hNSC monolayer in immunofluorescent image [5]: primarily of a neuronal lineage

O=C1CC[C@@]2(O)[C@H]3Cc4ccc(O)c5c4[C@@]2(CCN3CC2CC2)[C@H]1O5 [naltrexone]
EC50 ([2]; Homo sapiens, Neural stem cell): 0.39 µM

Cc1nccn1CC1CCc2c(c3ccccc3n2C)C1=O (centres unmarked) [ondansetron]
EC50 ([2]; Homo sapiens, Neural stem cell): 23.9 µM | effect on neuronal differentiation (in words) [2]: promote differentiation of neural stem cells into neurons

CNS(=O)(=O)Cc1ccc2[nH]cc(CCN(C)C)c2c1 [sumatriptan]
EC50 ([2]; Homo sapiens, Neural stem cell): 14.9 µM | effect on neuronal differentiation (in words) [2]: promotes differentiation of neural stem cells into neurons

O=C1[C@@H]2[C@H]3CC[C@H](C3)[C@@H]2C(=O)N1CCCCN1CCN(c2ncccn2)CC1 [tandospirone]
EC50 ([2]; Homo sapiens, Neural stem cell): 12.1 µM | EC50 [3, 9]: 8.69 µM
